Read-outs that look alike come from different tables or passages of the source.
Legend:
Format in all cases: cell-based, human
MCF-7 cells [1] = assay: In vitro cytotoxicity assessment, alamar blue assay, 24-h exposure; conditions: for Cytotoxic activity IC25 ± SD: 25% reduction in metabolic activity
Procedure: The MCF-7 (human breast cancer) and MCF-12A (non-tumourigenic human breast) cell lines were obtained from the Technological University Dublin (TUDublin, City Campus) internal cell bank and commercially from the American Type Culture Collection (ATCC), respectively. Both cell lines were cultured using Dulbecco’s Modified Eagle Medium/Nutrient Mixture F-12 Ham (DMEM-F12) (Sigma, Ireland) (Cat# D6421) media. The MCF-7 media was supplemented with 10% Foetal Bovine Serum (Sigma, Ireland) (Cat# F7524) and 1% L-Glutamine (Sigma, Ireland) (Cat# 592020C). The MCF-12A media was supplemented with 5% Equine Serum (Sigma, Ireland) (Cat# H0146) 1.25% L-Glutamine (Sigma, Ireland) (Cat# 592020C), 20 ng/ml Human Epidermal Growth Factor (Thermo Fisher Scientific, Ireland) (Cat# PHG0313), 0.01 mg/ml insulin (Thermo Fisher Scientific, Ireland)(Cat# 12585014) and 500 ng/ml hydrocortisone (Sigma, Ireland) (Cat# H0888). The cells were grown in T75 culture flasks (Sarstedt, Germany) (Cat# 83.3911.002) and were incubated in a 5% CO2 atmosphere at 37 ℃. […] Following the incubation period, the media was removed, and cells were washed with sterile phosphate-buffered saline (PBS). […] Following the exposure period, the drug-containing media was removed, and cells were washed three times with PBS, ensuring complete removal of the test agents. A 5% working solution of Alamar Blue (Thermo Fisher Scientific, Ireland) (Cat# DAL1100) was prepared in dark conditions using unsupplemented cell culture media. 100 μl of the solution was added to each well, and the cells were incubated for 3 h. […] Each exposure was carried out in triplicate plates and was repeated three independent times. The software packages Microsoft^Ⓡ Excel (USA) and GraphPad Prism (Ver. 10.0.3) (GraphPad, USA) were used to analyse the alamar blue data. The treated sample values were first normalised to the negative control values. After normalisation, the mean and standard deviations (SD) were established using Microsoft^Ⓡ Excel. The statistical analysis package GraphPad was then used to determine the IC25 and IC50 concentrations.

MCF-12A cells = assay: as above; conditions: MCF-12A; for Cytotoxic activity IC25 ± SD: 25% reduction in metabolic activity
Procedure: The MCF-7 (human breast cancer) and MCF-12A (non-tumourigenic human breast) cell lines were obtained from the Technological University Dublin (TUDublin, City Campus) internal cell bank and commercially from the American Type Culture Collection (ATCC), respectively. Both cell lines were cultured using Dulbecco’s Modified Eagle Medium/Nutrient Mixture F-12 Ham (DMEM-F12) (Sigma, Ireland) (Cat# D6421) media. The MCF-7 media was supplemented with 10% Foetal Bovine Serum (Sigma, Ireland) (Cat# F7524) and 1% L-Glutamine (Sigma, Ireland) (Cat# 592020C). The MCF-12A media was supplemented with 5% Equine Serum (Sigma, Ireland) (Cat# H0146) 1.25% L-Glutamine (Sigma, Ireland) (Cat# 592020C), 20 ng/ml Human Epidermal Growth Factor (Thermo Fisher Scientific, Ireland) (Cat# PHG0313), 0.01 mg/ml insulin (Thermo Fisher Scientific, Ireland)(Cat# 12585014) and 500 ng/ml hydrocortisone (Sigma, Ireland) (Cat# H0888). The cells were grown in T75 culture flasks (Sarstedt, Germany) (Cat# 83.3911.002) and were incubated in a 5% CO2 atmosphere at 37 ℃. The cells were monitored daily, and once 80–90% confluence was reached, they were subcultured with an enzymatic dissociation method using trypsin. Both cell lines were routinely subcultured for 1 week prior to beginning experimental work, to ensure the cells had adapted to the environment.
The MCF-7 and MCF-12A cells were seeded at a density of 1 × 10^4 in 96-well flat bottom plates (Sarstedt, Germany) (Cat# 83.3924) and incubated in a 5% CO2 atmosphere at 37 ℃ for 24 h prior to exposure to the complexes. Following the incubation period, the media was removed, and cells were washed with sterile phosphate-buffered saline (PBS). […] All agents were diluted in supplemented cell culture media, and the cells were exposed to a concentration range of 0.5 μM–100 μM for 24 h in the conditions outlined previously. Following the exposure period, the drug-containing media was removed, and cells were washed three times with PBS, ensuring complete removal of the test agents. A 5% working solution of Alamar Blue (Thermo Fisher Scientific, Ireland) (Cat# DAL1100) was prepared in dark conditions using unsupplemented cell culture media. 100 μl of the solution was added to each well, and the cells were incubated for 3 h. Following incubation, absorbance values were obtained using a Varioskan Lux (Thermo Scientific, USA) at 570 nm and 600 nm wavelengths. Each exposure was carried out in triplicate plates and was repeated three independent times.
The software packages Microsoft^Ⓡ Excel (USA) and GraphPad Prism (Ver. 10.0.3) (GraphPad, USA) were used to analyse the alamar blue data. The treated sample values were first normalised to the negative control values. After normalisation, the mean and standard deviations (SD) were established using Microsoft^Ⓡ Excel. The statistical analysis package GraphPad was then used to determine the IC25 and IC50 concentrations. […] A p value of 0.05 or lower is considered to be statistically significant.

MCF-7 cells [2] = assay: Apoptosis induction, Annexin V / propidium iodide flow cytometry; conditions: MCF-7, IC25 concentration, 24 h
Procedure: MCF-7 and MCF-12A cells were seeded at a density of 1 × 10^5 in T25 flasks (Sarstedt, Germany) and incubated for 24 h at 37 °C with 5% CO2 allowing for attachment. Post -incubation, the media was removed, cells were washed with sterile PBS and then treated using IC25 concentrations established from the in vitro cytotoxicity screen. […] After the exposure period, the cells were enzymatically detached using trypsin, collected and centrifuged at 1200RPM for 10 min. The cells were then washed with PBS, re-centrifuged and resuspended in 1 ml of annexin binding buffer. Prior to staining, the concentration of each sample was adjusted to 1 × 10^6 cells/ml. The cells were stained with 1 μl of propidium iodide (PI) (Sigma, Ireland) (Cat #P4864) and 2 μl of Annexin V (Thermo Fisher Scientific, Ireland) (Cat #A13199). The cells were incubated at room temperature for 15 min prior to analysis. The staining process was completed in the dark to eliminate interference with photo-sensitive reagents. Immediately prior to analysis by flow cytometry, 400 μl of annexin binding buffer was added to each sample. Samples were analysed using a (CytoFLEX) (Beckman Coulter, USA). The AV/PI assay was completed three independent times.
Flow cytometry data analysis was performed with the CytExpert package (Ver. 2.4) (Beckman Coulter, USA) and Microsoft^Ⓡ Excel (USA). The mean MFI and percentage cells were calculated using these packages, followed by one-way ANOVA analysis with post hoc Bonferroni correction using GraphPad Prism (Ver. 9.4) (GraphPad, USA).
The induction of apoptosis was analysed in MCF-7 and MCF-12A cells using the Annexin V and Propidium Iodide assay with flow cytometry. […] The assay allows for the differentiation of viable, apoptotic and necrotic cells based on the selective staining of Annexin V and PI. Annexin V binds to phosphatidylserines externalised to the outer leaflet of the plasma membrane during apoptosis; and PI is a membrane impermeable dye that binds to DNA of necrotic cells with compromised plasma membranes.

[3] = MCF-7, 24-h exposure, mean ± SD (N = 3)
[4] = MCF-7, 24-hour exposure, per one metal centre, mean ± S.D. (N=3)
[5] = 24-h exposure, mean ± SD (N = 3)
[6] = 24-hour exposure, per one metal centre, mean ± S.D. (N=3)

Structure (SMILES): O=C([O-])CCCCCCC(=O)[O-].[Ag+].[Ag+] [Complex 6, [Ag2(oda)]]
- Decrease in toxicity compared to phen-containing complex 4 (MCF-7 cells [1]; Ag(I) pre-cursor vs complex 4): approximately twofold
- Decrease in toxicity compared to phen-containing complex 5 (MCF-7 cells [1]; Ag(I) pre-cursor vs complex 5): ~3.5 fold
- Cytotoxic activity IC25 ± SD (MCF-7 cells [1]; [3]): 13.90 ± 2.93 µM
- IC25 calculated per one metal centre (MCF-7 cells [1]; [4]): 27.80 ± 5.86 µM
- Cytotoxic activity IC25 ± SD (MCF-12A cells; [5]): 6.43 ± 4.9 µM
- IC25 calculated per one metal centre (MCF-12A cells; [6]): 12.86 ± 9.80 µM
- Necrotic population (% cells) (MCF-7 cells [2]): high necrotic populations

Structure (SMILES): O.O=C([O-])CCCCCCC(=O)[O-].[Mn+2] [Complex 8, [Mn(oda)]⋅H2O]
- Cytotoxic activity IC25 ± SD (MCF-7 cells [1]; [3]): > 100 µM
- IC50 (MCF-7 cells [1]; MCF-7, 24-h exposure, 50% reduction in metabolic activity, mean ± SD (N = 3), read-out: Cytotoxic activity IC50 ± SD): > 100 µM
- IC25 calculated per one metal centre (MCF-7 cells [1]; [4]): >100  µM
- IC50 (MCF-7 cells [1]; MCF-7, 24-hour exposure, per one metal centre, mean ± S.D. (N=3), read-out: IC50 calculated per one metal centre): > 100 µM
- Cytotoxic activity IC25 ± SD (MCF-12A cells; [5]): > 100 µM
- IC50 (MCF-12A cells; 24-h exposure, 50% reduction in metabolic activity, mean ± SD (N = 3), read-out: Cytotoxic activity IC50 ± SD): > 100 µM
- IC25 calculated per one metal centre (MCF-12A cells; [6]): >100  µM
- IC50 (MCF-12A cells; 24-hour exposure, per one metal centre, mean ± S.D. (N=3), read-out: IC50 calculated per one metal centre): > 100 µM
